Assay results as given in patent publication US8618178B2, “Method and substances for treating T-cell mediated autoimmune diseases” (Eberhard-Karls-Universitaet Tuebingen Universitaetsklinikum, priority 2006, dated 2013).

Experiments:
Format in all cases: cell-based, mouse
IL-10 = IL-10 production by DC, ELISA of culture supernatants; details: GSH-OEt added to DMF
Protocol: (§1) IL-4, IL-10, IL-12 and interferon-γ were determined using the ELISA (enzyme linked immunosorbent assay) set or with the use of individual components from BD BioSciences. IL-23 in the supernatant was determined using the ELISA set (eBioscience). For intracytoplasmic cytokine analyses, the T cells were restimulated with PMA/ionomycin or with APC and peptide in the presence of brefeldin A, then fixed and permeabilized and stained. For the surface staining, anti-CD4 or KJ1-26 antibodies were used; the cytokine antibodies (PE labeled) were all obtained from BD Pharmingen.
As antigen presenting cells (APC), T cell depleted spleen cells from syngenic mice were used. Dendritic cells (DC) which were obtained from bone marrow (BMDC) and cultured with GM-CSF were used for the relevant experiments on day 7 of culturing. For the experiment, in each case an equal number of APC were cultured either with the medium alone, with L-BSO (C8H18N2O3S, 0.5 mM), dimethyl sulfoxide DMSO(C2H6OS), dimethyl fumarate DMF (C6H8O4, dissolved in DMSO, 70 μM), or calcium monomethyl fumarate (MMF; CaC10H10O8, 200 μM). […] At the respective stated times (see below) the cells were either analyzed directly for their GSH content, used for T cell stimulation or stimulated for […] with Escherichia coli lipopolysaccharides 055.B5 (Sigma-Aldrich) or CpG-DNA 1668 (MWG Biotech) and IL-4 (Stratmann). […]

IL-23 = IL-23 production by DC, ELISA of culture supernatants; details: GSH-OEt added to DMF
Protocol: as §1
(§2) As antigen presenting cells (APC), T cell depleted spleen cells from syngenic mice were used. Dendritic cells (DC) which were obtained from bone marrow (BMDC) and cultured with GM-CSF were used for the relevant experiments on day 7 of culturing. For the experiment, in each case an equal number of APC were cultured either with the medium alone, with L-BSO (C8H18N2O3S, 0.5 mM), dimethyl sulfoxide DMSO(C2H6OS), dimethyl fumarate DMF (C6H8O4, dissolved in DMSO, 70 μM), or calcium monomethyl fumarate (MMF; CaC10H10O8, 200 μM). All substances except for MMF (Fumapharm) were purchased from Sigma-Aldrich. At the respective stated times (see below) the cells were either analyzed directly for their GSH content, used for T cell stimulation or stimulated for IL-2 production with Escherichia coli lipopolysaccharides 055.B5 (Sigma-Aldrich) or CpG-DNA 1668 (MWG Biotech) and IL-4 (Stratmann). In order to raise the GSH level again, 1 mM GSH-OEt (C12H21N3O6S; Sigma-Aldrich) or 1 mM NAC (Sigma-Aldrich) was added. The GSH reservoirs in mice were depleted by feeding with DMF or MMF, and in man by treatment with Fumaderm®.

BMDC = experiment: Measurement of reactive oxygen species (ROS) in DC with dichlorofluorescein, flow cytometry; details: for effect on DMF-induced ROS increase in DC: added to DMF, 1 mM
Protocol: For the measurement of reactive oxygen species (ROS) in DC and APC, the fluorescent dye 2′,7′ dichlorofluorescein (H2 DCFDA, Molecular Probes, Eugene, USA) was used. 5×10^5 DC were preincubated in 1 ml of RPMI medium (without mercaptoethanol) for 60 mins at 37° C. in the incubator with 1% DMSO or 10 μg/ml DMF+/−NAC (1 mM) or GSX (1 mM). After this preincubation, 1 μM/ml H2 DCFDA was added and the cells incubated for a further 30 mins at 37° C. Within one hour, the fluorescence produced was detected using flow cytometry (FL1).
as §2, with “added.” for “added. The GSH reservoirs in mice were depleted by feeding with DMF or MMF, and in man by treatment with Fumaderm®.”
For testing the potential of pharmaceutical substances to induce the ROS, the following procedure was developed: for the measurement of reactive oxygen species (ROS) in cells, the fluorescent dye 2′,7′ dichlorofluorescein (H2 DCFDA) is used. The absorption spectrum of the substance is 492-495 nm and the emission spectrum lies in the range between 517-527 nm. On induction of cell stress, e.g., by the administration of ROS-causing reagents, oxidation of the H2 DCFDA to DCFDA+H2 occurs. The fluorescence arising as a result can be detected using flow cytometry (FL1).

IL-12 = IL-12 production by DC, ELISA of culture supernatants; details: for effect on IL-12 suppression caused by GSH depletion in DC: exogenous addition, 1 mM
Protocol: as §1
as §2, with “used for T cell stimulation or stimulated for IL-2 production with Escherichia coli lipopolysaccharides” left out, “added.” for “added. The GSH reservoirs in mice were depleted by feeding with DMF or MMF, and in man by treatment with Fumaderm®.”

SMILES	IL-10 production in DC, added to DMF (IL-10)	IL-23 production in DC, added to DMF (IL-23)	effect on DMF-induced ROS increase in DC (BMDC)	effect on IL-12 suppression caused by GSH depletion in DC (IL-12)	intracellular ROS in DC (BMDC; dichlorofluorescein, flow cytometry)	IL-12 production by DC (IL-12; after stimulation with LPS)
CCOC(=O)CNC(=O)[C@H](CS)NC(=O)CC[C@H](N)C(=O)O [GSH-OEt, GSH ethyl ester]	decreased IL-10 production	restored IL-23 production	completely neutralized	neutralized the IL-12 suppression		
OO [H2O2, hydrogen peroxide]					induction of ROS	lower the production of IL-12
CC(=O)N[C@@H](CS)C(=O)O [NAC, N-acetylcysteine]			completely neutralized	same effects as GSH-OEt		
